Key:
Experiment in all cases: cell-based
KV1.4 [1] = molecular target: T1, KV1.4 (Homo sapiens, UniProt P22459, A553V); details: CHO
T1 construct: gene KCNA4

KV1.4 [2] = molecular target: T2, KV1.4 (Homo sapiens, UniProt P22459, T551A); details: CHO
T2 construct: gene KCNA4

KV1.4 [3] = molecular target: T3, KV1.4 (Homo sapiens, UniProt P22459, V556A); details: CHO
T3 construct: gene KCNA4

KV1.3 = molecular target: T4, KV1.3 (Homo sapiens, UniProt P22001)
T4 construct: gene KCNA3

KV1.4 [4] = molecular target: T5, KV1.4 (Homo sapiens, UniProt P22459, V558A); details: CHO
T5 construct: gene KCNA4

KV1.4 [5] = molecular target: T6, KV1.4 (Homo sapiens, UniProt P22459, V549A); details: CHO
T6 construct: gene KCNA4

KV1.4 [6] = molecular target: T7, KV1.4 (Homo sapiens, UniProt P22459, N-TERMINALTRUNCATION(1–61DELETED))
T7 construct: gene KCNA4

KV1.4 [7] = molecular target: T8, KV1.4 (Homo sapiens, UniProt P22459)
T8 construct: gene KCNA4

KV1.4 [8] = molecular target: T9, KV1.4 (Homo sapiens, UniProt P22459, L554A); details: CHO
T9 construct: gene KCNA4

KV1.2 = molecular target: T10, KV1.2 (Homo sapiens, UniProt P16389)
T10 construct: gene KCNA2
T10 sequence (P16389 whole entry): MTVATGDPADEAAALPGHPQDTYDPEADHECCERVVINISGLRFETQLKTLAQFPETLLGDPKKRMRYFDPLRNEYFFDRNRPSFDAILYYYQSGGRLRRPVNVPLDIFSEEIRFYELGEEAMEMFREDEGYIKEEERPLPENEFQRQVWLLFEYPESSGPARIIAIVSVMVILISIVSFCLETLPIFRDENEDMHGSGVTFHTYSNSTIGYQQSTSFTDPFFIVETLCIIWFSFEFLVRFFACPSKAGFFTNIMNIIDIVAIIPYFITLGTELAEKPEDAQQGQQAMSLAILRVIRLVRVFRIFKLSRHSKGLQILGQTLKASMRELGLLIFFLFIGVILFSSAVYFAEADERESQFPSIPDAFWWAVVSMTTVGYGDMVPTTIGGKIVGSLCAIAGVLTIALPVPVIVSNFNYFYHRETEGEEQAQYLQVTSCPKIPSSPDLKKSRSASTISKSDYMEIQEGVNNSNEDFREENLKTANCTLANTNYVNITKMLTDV

T6 sequence (P22459 whole entry V549A): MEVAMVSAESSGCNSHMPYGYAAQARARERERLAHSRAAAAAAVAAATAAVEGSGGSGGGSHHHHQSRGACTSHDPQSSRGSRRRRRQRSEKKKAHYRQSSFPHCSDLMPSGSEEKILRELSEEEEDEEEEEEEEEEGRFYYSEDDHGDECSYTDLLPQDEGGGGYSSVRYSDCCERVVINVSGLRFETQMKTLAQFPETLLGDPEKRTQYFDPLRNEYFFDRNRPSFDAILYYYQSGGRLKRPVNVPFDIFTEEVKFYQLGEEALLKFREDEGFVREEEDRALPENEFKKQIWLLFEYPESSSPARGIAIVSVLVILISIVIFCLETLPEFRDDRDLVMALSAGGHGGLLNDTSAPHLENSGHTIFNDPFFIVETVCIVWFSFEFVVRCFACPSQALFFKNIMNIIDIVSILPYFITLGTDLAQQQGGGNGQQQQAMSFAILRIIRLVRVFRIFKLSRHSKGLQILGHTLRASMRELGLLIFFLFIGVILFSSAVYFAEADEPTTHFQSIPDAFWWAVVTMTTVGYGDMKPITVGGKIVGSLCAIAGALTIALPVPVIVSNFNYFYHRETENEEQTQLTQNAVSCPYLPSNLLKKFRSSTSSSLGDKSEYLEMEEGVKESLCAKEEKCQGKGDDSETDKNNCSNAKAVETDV
T1 sequence (P22459 whole entry A553V): as the sequence (P22459 whole entry V549A) above, with A549V, A553V counted along it
T5 sequence (P22459 whole entry V558A): as the sequence (P22459 whole entry V549A) above, with A549V, V558A counted along it
T7 sequence (P22459 62-653, stated change not applied): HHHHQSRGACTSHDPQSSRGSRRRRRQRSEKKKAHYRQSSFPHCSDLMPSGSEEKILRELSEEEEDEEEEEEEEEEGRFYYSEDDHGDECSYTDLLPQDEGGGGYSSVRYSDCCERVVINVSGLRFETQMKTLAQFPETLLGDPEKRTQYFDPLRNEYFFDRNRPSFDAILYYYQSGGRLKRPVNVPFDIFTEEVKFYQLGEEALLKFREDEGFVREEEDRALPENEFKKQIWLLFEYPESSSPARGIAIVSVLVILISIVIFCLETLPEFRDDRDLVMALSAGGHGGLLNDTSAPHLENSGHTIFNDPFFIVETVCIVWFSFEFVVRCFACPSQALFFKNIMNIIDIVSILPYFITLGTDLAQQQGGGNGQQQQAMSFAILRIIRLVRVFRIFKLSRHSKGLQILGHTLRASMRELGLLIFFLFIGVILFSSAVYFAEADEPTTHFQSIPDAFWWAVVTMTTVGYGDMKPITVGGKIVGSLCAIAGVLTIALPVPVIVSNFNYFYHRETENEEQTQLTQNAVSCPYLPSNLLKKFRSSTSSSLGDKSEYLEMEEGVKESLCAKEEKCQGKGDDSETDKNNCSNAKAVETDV
T4 sequence (P22001 whole entry): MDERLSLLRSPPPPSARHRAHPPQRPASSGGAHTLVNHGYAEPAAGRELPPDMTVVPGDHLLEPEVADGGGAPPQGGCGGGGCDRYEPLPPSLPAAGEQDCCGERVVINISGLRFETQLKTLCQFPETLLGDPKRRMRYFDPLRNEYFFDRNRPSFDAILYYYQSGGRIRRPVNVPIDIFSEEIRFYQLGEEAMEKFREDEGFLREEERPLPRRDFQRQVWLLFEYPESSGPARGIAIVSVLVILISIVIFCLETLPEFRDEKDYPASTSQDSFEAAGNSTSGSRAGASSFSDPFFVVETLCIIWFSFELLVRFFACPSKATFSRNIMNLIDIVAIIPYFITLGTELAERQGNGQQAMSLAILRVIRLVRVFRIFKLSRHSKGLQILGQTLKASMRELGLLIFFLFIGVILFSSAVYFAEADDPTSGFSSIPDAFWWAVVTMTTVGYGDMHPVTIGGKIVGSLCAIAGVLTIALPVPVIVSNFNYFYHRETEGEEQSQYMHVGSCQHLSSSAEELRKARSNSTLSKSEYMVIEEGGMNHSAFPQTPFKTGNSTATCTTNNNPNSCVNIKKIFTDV
T8 sequence (P22459 whole entry): as the sequence (P22459 whole entry V549A) above, with A549V counted along it
T9 sequence (P22459 whole entry L554A): as the sequence (P22459 whole entry V549A) above, with A549V, L554A counted along it
T2 sequence (P22459 whole entry T551A): as the sequence (P22459 whole entry V549A) above, with A549V, T551A counted along it
T3 sequence (P22459 whole entry V556A): as the sequence (P22459 whole entry V549A) above, with A549V, V556A counted along it

Question: How did the inhibition at 100 µM (KV1.4 [1]) turn out when `NCCOB(c1ccccc1)c1ccccc1` [2-APB] was run?
Answer: 18.4%

Question: And the inhibition at 100 µM (KV1.4 [2])?
Answer: 37.8%

Question: What about the inhibition at 100 µM (KV1.4 [3]) of the same compound?
Answer: 60.8%

Question: And the IC50 (KV1.3)?
Answer: 455 µM

Question: And the inhibition at 100 µM (KV1.4 [4])?
Answer: 57.3%

Question: And the inhibition at 100 µM (KV1.4 [5])?
Answer: 44.1%

Question: And the IC50 (KV1.4 [6])?
Answer: 310 µM

Question: What about the IC50 (KV1.4 [7]) of the same compound?
Answer: 67.3 µM

Question: What about the inhibition at 100 µM (KV1.4 [8]) of the same compound?
Answer: 32.9%

Question: What about the IC50 (KV1.2) of the same compound?
Answer: 310 µM
